Measurements from article PMC7504360 (International Journal of Molecular Sciences, 2020).
Square brackets hold non-standard residues; d marks the D form. Peptide text beside a SMILES is read from it.

Test system: E. coli K1-infected mice
Assay: E. coli K1 septic shock mouse model
Type: in vivo
Procedure: For sepsis model, we used E. coli K1 as an infection strain [47], and mice were randomly sorted in to 6 groups (5 mice/group). Control mice received I.P. injection of phosphate buffered saline (PBS, pH = 7.4) whereas Pro10-1 and Pro10-1D were injected with 1 mg/Kg and served as a peptide control. Mice infected with E. coli K1 (6 × 10^6 CFU/mouse, I.P.) served as a sepsis control. For treatment measures, mice were pretreated with 1 mg/kg of the respective peptides for 1 h and then infected with E. coli K1 like the septic mice. After 16 h, mice were euthanized by cervical dislocation under overdose of ether anesthesia. The blood samples, lung, liver, and kidney tissues were excised and processed for biochemical and histological analysis. Briefly, organ lysates of lung, liver, and kidney harvested from ice-cold PBS were evaluated for number of bacterial colonies. Endotoxin levels in the serum contents were quantified according to the kit protocol using Pierce LAL Chromogenic Endotoxin Quantitation Kit (Thermo Fisher Scientific, MA, USA). The levels of AST, ALT, and BUN in serum and the inflammatory cytokine levels in the serum or lung lysates were quantified as described previously.
Lung tissues of the control and an experimental group of mice fixed by paraformaldehyde (4% v/v) were evaluated for histological changes. Briefly, […] lung tissue sections were deparaffinized in xylene, rehydrated with graded ethanol, and then stained with H&E stain. The stained section was examined for neutrophil infiltration and other morbid changes with a light microscope (Eclipse Ni; Nikon, Tokyo, Japan).

[1] = 1 mg/kg I.P. 1 h before E. coli K1 6 × 10^6 CFU/mouse I.P., 16 h, 5 mice/group
[2] = 1 mg/kg I.P. pretreatment, septic mice, ELISA
[3] = 1 mg/kg I.P. pretreatment, E. coli K1-infected mice = 100%

## CC[C@@H](C)[C@@H](NC(=O)[C@@H](C)NC(=O)[C@@H](CC(C)C)NC(=O)[C@@H](Cc1c[nH]c2ccccc12)NC(=O)[C@@H](CC(C)C)NC(=O)[C@@H](CCCNC(=N)N)NC(=O)[C@H](N)CCCNC(=N)N)C(=O)N[C@H](Cc1c[nH]c2ccccc12)C(=O)N[C@H](CCCNC(=N)N)C(=O)N[C@H](CCCNC(=N)N)C(N)=O [Pro10-1D] (H-[dR][dR][dL][dW][dL][dA][dI][dW][dR][dR]-NH2; N-terminus assumed)
[1]
  reduction of the number of bacteria in kidney: ~71%
  reduction of the number of bacteria in liver: ~87%
  reduction of the number of bacteria in lung: approximately 73%
1 mg/kg I.P. pretreatment, E. coli K1-infected mice
  lung pathological changes (PMN infiltration), H&E histology: effectively alleviated the pathological changes
[2]
  suppression of IL-6 level in lung tissue: 62%
  suppression of IL-6 level in serum: 56%
  suppression of TNF-α level in lung tissue: 51%
  suppression of TNF-α level in serum: 45%
[3]
  reduction of serum endotoxin levels (LAL test): over 33%
  serum ALT level reduced to: 48%
  serum AST level reduced to: 26%
  serum BUN level reduced to: 37%
